Source: US20240398822A1, “METHODS AND COMPOSITIONS FOR TREATING AND MANAGING ALZHEIMER'S DISEASE” (Pharmatrophix, Inc., priority 2021, published 2024)
Entries after “also recorded” stand apart in the source; their conditions may differ.

What was measured:
Assay type in all cases: in vivo, human
sTREM2 = experiment: Phase IIa CSF glial biomarker sTREM2
Text: CSF samples were obtained at screening Visit and final Visit via lumbar puncture to determine levels of tau, p-tau, Aβ40, Aβ42 and AChE activity as an initial set of CSF biomarkers. Aliquots of CSF were made available for emerging CSF biomarker methods such as measurement of additional biomarkers including neurofilaments light chain, neurogranin, SNAP-25, synaptotagmin, YKL-40, TREM2, tau oligomers and for measurement of drug level in selected patients based on the time period between last dose of drug and CSF sampling (FIG. 25 and FIG. 58).
Baseline CSF samples are obtained prior to administration via lumbar puncture. These samples are used to determine levels of tau, p-tau, Aβ40, Aβ42, AChE, neurofilament light chain, SNAP-25, synaptotagmin-1, neurogranin, sTREM, and YKL-40. Aliquots of CSF are also made available for emerging CSF biomarker methods such as measurement of tau oligomers and for measurement of drug level in selected patients based on time period between last dose of the salt of Formula (II) and CSF sampling. […] Many of these biomarkers can also be measured in blood or plasma. The change in values over the time period from pre-treatment to post-treatment are of particular importance. […]

[1] = system: patients with mild to moderate Alzheimer's disease; experiment: Phase IIa structural MRI (regions of interest and voxel-based whole brain analysis)
Procedure: Volumetric MRI is conduction at the first and final visits. Volumetric analyses of the whole brain, hippocampus and other regions of interest are conducted. Measures of regional volumes as determined by MRI are regarded as standard measures of brain degeneration that are known to occur in AD. Volumes of the lateral ventricles are also assessed. Increasing ventricular volume is a marker for a diffuse increase in brain atrophy. […] The following Regions of interest were investigated in the ITT population: MRI Volume of the lateral ventricles in mm3—longitudinal stream change, MRI Average volume of the hippocampus in mm3—longitudinal stream change, MRI Average Volume of the entorhinal cortex in mm3—longitudinal stream change, MRI Total brain volume in mm3 change. Baseline and final Visit MRI scan were used to measure interval changes in volumes. Various cortical regions such as the Cingulate cortex were also assessed. […] The identified brain regions are similar in distribution to those having been previously identified to be particularly vulnerable to degeneration in AD.
For this analysis, the drug treatment group contains subject treated with either 200 or 400 mg doses. […] FIGS. 46A-46C show group x time interaction patterns using T1-weighted structural MRI. Contrast estimate plots show the magnitude and direction of the interaction effects observed in the flexible factorial GLM. […] Therefore, if the actual observed ratio of t-values is close to equivalent in the input map at a given p and k threshold, the MCS ratio and p-value will tend to support the null hypothesis of no drug effect. […] Increased thickness is similar to increased volume and means less degeneration. Here increased gyrification means increased atrophy.

[2] = system: patients with mild to moderate Alzheimer's disease; experiment: Phase IIa brain glucose metabolism (18F-FDG-PET); conditions: for FDG-PET voxel (MCS) analysis, dose comparison: 400 mg versus 200 mg versus placebo
Procedure: The specific ^18F FDG-PET scan for early detection of AD is conducted at the first and final visits. Quantitative and qualitative estimates of the cerebral glucose rate may be done by using FDG-PET as evident metabolic reduction is already present in patients at early stages of Alzheimer's disease. ^18F FDG-PET scanning is an imaging biomarker for synaptic function. Analyses include anatomical, statistical or voxel-based regions of interest.
FDG-PET using statistical ROI measures derived from ADNI as described in the Chen et al. paper.
Areas showing less decline are highlighted in yellow. It is notable that these areas are relevant to areas that degeneration in AD. […] This method makes possible analysis of FDG-PET signal in a common three-dimensional sampling space with the MRI analysis for each subject thereby enhancing accuracy of FDG-PET analysis and allowing the combination of the two modalities for further analyses and the assessment of the spatial relationship between structural and functional degeneration over time. […] For this analysis, the drug treatment group contains subjects treated with either 200 or 400 mg doses.
FIGS. 56A-56C show FDG PET using group x time interaction patterns. In FIGS. 56A-56C, contrast estimate plots show the magnitude and direction of the interaction effects observed in the flexible factorial GLM.
Therefore, if the actual observed ratio of t-values is close to equivalent in the input map at a given p and k threshold, the MCS ratio and p-value will tend to support the null hypothesis of no drug effect.

[3] = flexible factorial GLM, p<0.05 and cluster size >100

CC[C@H](C)[C@H](N)C(=O)NCCN1CCOCC1 [LM11A-31-BHS, Tris[(2S,3S)-2-amino-3-methyl-N-(2-morpholinoethyl)pentanamide] tetra(monohydrogensulfate), monosulfate]
CSF sTREM2, drug dose analysis (sTREM2; 200 and 400 mg doses): nominal reduction at the 200 and 400 mg doses
CSF sTREM2, drug effect (sTREM2; combined drug group, 6-month period): no drug effect was detected
cortical thickness and gyrification ([1]; anterior cingulate region area 33 prime): drug effect on improving cortical thickness or decreasing gyrification
hippocampal (HC) volume, sMRI ([1]; combined drug group, 6-month period, p=0.006): significant increase in HC volume
volume of the dentate gyrus ([1]; drug group, humans): promotes increased volume of the dentate gyrus; also recorded: significant increase in the volume of the dentate gyrus
voxel-wise T1-weighted structural MRI, loss of volume, dose analysis [1, 3]: significant effect at both the 200 and 400 mg doses in slowing loss of volume
volume loss in voxel-based whole brain MRI, drug versus placebo ([1]; treatment period): slow volume loss in brain regions known to be particularly vulnerable to degeneration in AD
voxel-wise structural MRI volume loss, age analysis ([1]; younger <72 years, older >=72 years): significant drug effect in both age groups
FDG-PET voxel (MCS) analysis, dose comparison [2]: 400 mg effect is significant and significantly greater than the 200 mg effect
FDG-PET voxel (MCS) analysis, dose comparison ([2]; listed as LM11A-31): The effect at the 400 mg dose is higher than that at the 200 mg dose
FDG-PET statistical ROI decline, drug versus placebo ([2]; combined drug group, 6 month period): trend to less decline
cerebral glucose rate compared to placebo or no treatment ([2]; daily treatment): reduction in the extent of ongoing decrease in cerebral glucose rate
FDG-PET loss of SUVR signal, dose analysis [2, 3]: significant effect at both the 200 and 400 mg doses in slowing loss of SUVR signal
FDG-PET sROI, dose comparison ([2]; not statistically significant): greater trend is observed at 400 compared to the 200 mg dose
